Source: EP0327365B1, “Improvements in or relating to modified haptens useful as imaging and therapeutic agents” (HYBRITECH INCORPORATED, priority 1988, dated 1989)

How the values were obtained:
[1] = system: monoclonal antibody CHA255; experiment: Determination of hapten-antibody dissociation rates; assay type: binding, BALB/c mice; conditions: 22°C; indium complex of hapten from CHA255 after 100 fold excess of indium-115 loaded hapten
Description: Hapten-antibody dissociation rates were determined using monoclonal antibody CHA255, prepared as described in Example 2A, by measuring the quantity of ¹¹¹In³⁺ chelate released from the antibody hapten complex as a function of time after addition of a 100 fold excess (over antibody binding sites) of indium-115 loaded hapten. Thus, for each hapten, a 700 »l solution was prepared containing: antibody at a concentration of 160 nM; indium loaded hapten, trace labeled with ¹¹¹In (total concentration = 160 nM); normal human serum albumin at a total concentration of 1.5 mg/mL; and isotonic phosphate buffered saline, (10 mM PO₄²⁻, 150 mM NaCl, pH 7.2). Indium-115 loaded hapten was added to a final Concentration of […]. Reactions were stirred by placing the sample containers ir a rack mounted on a vortexer head.
At various times after addition of the excess hapten, […] portions of the reaction solutions were transferred to Centrifree tubes (Amicon Corperation, Danvers, Massachusetts) and centrifuged at 1500xg for eight to ten minutes. The reaction time was taken to be the time between addition of the excess hapten and the time the centrifuge reached the desired velocity. Six timepoints, each in duplicate, were obtained over a range of about two reaction half-lives for each rate constant determination. A 200 »l portion from each centrifuged and uncentrifuged solution was then counted for ¹¹¹In. The relative concentration of free hapten was taken to be the ratio of counts in the centrifuged solution to the uncentrifuged solution at each timepoint. Times were recorded to the nearest tenth of a minute.
Room temperature rate constants were measured without the aid of a constant temperature bath. The ambient temperature remained at 22°±1 C.
Rate constants and standard deviations were obtained from a plot of the logarithm of relative complex concentration vs. time. Data were analyzed using the linear regression module of the RS/1 Program (BBN Software Products Corporation, Cambridge, Massachusetts).
Control samples were included in each experiment to determine: A) that the initial condition of 100% of labeled hapten bound to antibody was met, and B) that in the absence of antibody, 100% of counts were able to penetrate the Centrifree membrane. […]

T-380 tumors = experiment: Hapten biodistribution, premix protocol with bifunctional antibody ECH037.2; assay type: in vivo, nude mice; design: TOTAL RECOV: unit not given here; conditions: for % DOSE PER GRAM, KIDNEY / % DOSE PER GRAM, LIVER / % DOSE PER GRAM, TUMOR / FECES / TOTAL RECOV / URINE / % DOSE PER GRAM, BLOOD / TUMOR/BLOOD: premix with 20 µg ECH037.2; for % DOSE PER GRAM, BLOOD: 111In-labeled hapten i.v.; for TUMOR/BLOOD: ratio; for Percent Injected Dose in Feces: premix protocol (Table VI); for amount of hapten in the tumor / injected material excreted in the feces: premix protocol; for injected material excreted in the feces: 48 hrs. post injection
Description: Two protocols were used for examining the biodistribution of the derivatized haptens in the presence of the bifunctional antibody ECH037.2. In a premix protocol, ECH037.2 and the derivatized hapten were combined prior to injection in the animals. In the prelocalization protocol, ECH037.2 was injected into the animals, and the antibody was allowed to prelocalize for 24 hours prior to injection of the radiolabeled hapten.
Biodistribution studies were performed in nude mice carrying subcutaneous implants of the human colon carcinoma cell line T-380 which expresses the carcinoembryonic antigen (CEA) recognized by ECH037.2. Briefly, Balb/C Nu/Nu mice were injected subcutaneously with a minced preparation of T-380 tumor implants and maintained for approximately two weeks, or until the tumor implant had grown to a size of approximately 0.5 grams as described by Hagan, P.L., et al. J. Nuc. Med., 26 1418-1423 (1985). Mice were kept in a sterile environment to prevent complications due to bacterial or viral infections. Biodistributions were performed as described by Halpern, S., et al., Cancer Res. 43, 5347-5355 (1983). Briefly, the radiolabeled haptens were injected intravenously in […], and the pharmacokinetics were evaluated at several time points post-injection. At these times, mice were sacrificed and weighed. Organs were removed, their weight recorded, and each organ was then washed in sterile PBS, pH 7.0, and fixed in formalin solution. Samples of blood, urine and feces also were collected and their weight similarly recorded. The organs, or a portion thereof, were transferred to clean tubes and their radioactive content was determined in a well-type gamma-counter.
Relative radioactive content of each organ was expressed as a percentage of injected dose per organ.
To indium-label the haptens of the invention 10 »l of 0.1 mM ligand was combined with X »l of ¹¹¹InCl₃ (in 50 mM HCl) and (x+10) »l of 0.26 M ammonium citrate, pH 6.0. X is calculated by the following equation: X = (200 »Ci)/(A »Ci/»l) [formula] where A is the specific activity of the ¹¹¹In.
The labeling was done in an acid-washed microfuge tube. After combining all of the components above, the solution was vortexed and allowed to stand at room temperature for 15 minutes.
Incorporation of the ¹¹¹In into the chelating agent was determined by TLC on silica in a methanol/aqueous ammonium acetate solvent system as described by Meares, et al. (Anal. Biochem., 142, 68-75 (1984)). Greater than 95% incorporation of the radioactivity into the chelate was required for the sample to be submitted for a biodistribution assay.
Prior to injection the ¹¹¹In-labeled hapten was diluted into freshly prepared isotonic sodium bicarbonate (1.39% w/v) containing 1 mg/ml normal human serum albumin (Buminate, 25% solution, Travenol Laboratories, Glendale, California) to which the bifunctional antibody had been added. The final composition of the solution was 0.2 mg/ml ECH037.2, 0.5 »M chelate, 0.1 »Ci/»l ¹¹¹In, all in a volume of 2.0 ml. For the biodistribution studies, 100 »l of the solution was injected into the tail vein of each animal.

Row | SMILES | % DOSE PER GRAM, KIDNEY (T-380 tumors; 24 hours) [% DOSE PER GRAM] | % DOSE PER GRAM, LIVER (T-380 tumors; 24 hours) [% DOSE PER GRAM] | % DOSE PER GRAM, TUMOR (T-380 tumors; 24 hours) [% DOSE PER GRAM] | FECES (T-380 tumors; 24 hours) | TOTAL RECOV (T-380 tumors; 24 hours) | URINE (T-380 tumors; 24 hours) | % DOSE PER GRAM, BLOOD (T-380 tumors; 24 hours) [% DOSE PER GRAM] | TUMOR/BLOOD (T-380 tumors; 24 hours) | Percent Injected Dose in Feces (T-380 tumors; 24 hrs.) [Percent Injected Dose] | % DOSE PER GRAM, KIDNEY (T-380 tumors; 48 hours) [% DOSE PER GRAM] | % DOSE PER GRAM, LIVER (T-380 tumors; 48 hours) [% DOSE PER GRAM] | % DOSE PER GRAM, TUMOR (T-380 tumors; 48 hours) [% DOSE PER GRAM] | FECES (T-380 tumors; 48 hours) | TOTAL RECOV (T-380 tumors; 48 hours) | URINE (T-380 tumors; 48 hours) | % DOSE PER GRAM, BLOOD (T-380 tumors; 48 hours) [% DOSE PER GRAM] | TUMOR/BLOOD (T-380 tumors; 48 hours) | Percent Injected Dose in Feces (T-380 tumors; 48 hrs.) [Percent Injected Dose] | amount of hapten in the tumor (T-380 tumors; 24 hrs.) | t1/2, Dissociation Half-Lives [1] [h] | also measured
1 | O=C(O)CN(CC(=O)O)CC(Cc1ccc(NC(=S)NCc2ccccc2)cc1)N(CC(=O)O)CC(=O)O (stereo not drawn) [BETUBE] | 2.5 | 2.7 | 8.0 | 17.4% of total injected dose | 44.6 | 8.4% of total injected dose | 9.0 | 0.89 | 17.4 | 1.5 | 1.9 | 7.5 | 29.0% of total injected dose | 54.2 | 12.0% of total injected dose | 5.5 | 1.36 | 29.0 |  | 1.57 | 
2 | CCCCNC(=S)Nc1ccc(CC(CN(CC(=O)O)CC(=O)O)N(CC(=O)O)CC(=O)O)cc1 (stereo not drawn) [BUTUBE] | 1.7 | 3.4 | 5.3 | 16.8% of total injected dose | 63.8 | 22.0% of total injected dose | 9.0 | 0.59 | 16.8 | 1.2 | 3.8 | 5.7 | 26.5% of total injected dose | 69.3 | 27.0% of total injected dose | 5.8 | 0.98 | 26.5 | 5.3 percent injected dose/gram | 1.51 | injected material excreted in the feces (T-380 tumors): 26.5% of the injected material; amount of hapten in the tumor (T-380 tumors; 48 hrs.): 5.7 percent injected dose/gram
3 | CCNC(=S)Nc1ccc(CC(CN(CC(=O)O)CC(=O)O)N(CC(=O)O)CC(=O)O)cc1 (stereo not drawn) [ETUBE] | 2.4 | 3.5 | 8.0 | 5.9% of total injected dose | 52.2 | 25.8% of total injected dose | 10.4 | 0.77 | 6.7 | 1.2 | 2.4 | 10.4 | 15.2% of total injected dose | 66.6 | 36.0% of total injected dose | 5.9 | 1.76 | 15.2 | 8.0 percent injected dose/gram | 1.21 | injected material excreted in the feces (T-380 tumors): 15.2% of the injected material; amount of hapten in the tumor (T-380 tumors; 48 hrs.): 10.4 percent injected dose/gram
4 | O=C(O)CCCC(=O)NCCNC(=S)Nc1ccc(CC(CN(CC(=O)O)CC(=O)O)N(CC(=O)O)CC(=O)O)cc1 (stereo not drawn) [GNUBE] | 2.7 | 3.4 | 9.0 | 10.6% of total injected dose | 52.0 | 14.2% of total injected dose | 13.0 | 0.70 | 10.6 | 1.5 | 2.4 | 12.0 | 17.8% of total injected dose | 63.1 | 26.9% of total injected dose | 8.0 | 1.49 | 17.8 |  | 1.65 | 

The next lines start with results.

Row | % DOSE PER GRAM, KIDNEY (T-380 tumors; 24 hours) [% DOSE PER GRAM] | % DOSE PER GRAM, LIVER (T-380 tumors; 24 hours) [% DOSE PER GRAM] | % DOSE PER GRAM, TUMOR (T-380 tumors; 24 hours) [% DOSE PER GRAM] | FECES (T-380 tumors; 24 hours) | TOTAL RECOV (T-380 tumors; 24 hours) | URINE (T-380 tumors; 24 hours) | % DOSE PER GRAM, BLOOD (T-380 tumors; 24 hours) [% DOSE PER GRAM] | TUMOR/BLOOD (T-380 tumors; 24 hours) | Percent Injected Dose in Feces (T-380 tumors; 24 hrs.) [Percent Injected Dose] | % DOSE PER GRAM, KIDNEY (T-380 tumors; 48 hours) [% DOSE PER GRAM] | % DOSE PER GRAM, LIVER (T-380 tumors; 48 hours) [% DOSE PER GRAM] | % DOSE PER GRAM, TUMOR (T-380 tumors; 48 hours) [% DOSE PER GRAM] | FECES (T-380 tumors; 48 hours) | TOTAL RECOV (T-380 tumors; 48 hours) | URINE (T-380 tumors; 48 hours) | % DOSE PER GRAM, BLOOD (T-380 tumors; 48 hours) [% DOSE PER GRAM] | TUMOR/BLOOD (T-380 tumors; 48 hours) | Percent Injected Dose in Feces (T-380 tumors; 48 hrs.) [Percent Injected Dose] | amount of hapten in the tumor (T-380 tumors; 24 hrs.) | SMILES | t1/2, Dissociation Half-Lives [1] [h] | also measured
5 | 3.6 | 4.0 | 13.0 | 6.8% of total injected dose | 52.0 | 16.3% of total injected dose | 11.0 | 1.18 | 8.5 | 1.9 | 2.2 | 12.9 | 13.8% of total injected dose | 57.8 | 26.5% of total injected dose | 5.2 | 2.48 | 13.8 |  | CC(=O)NC(CCCCNC(=S)Nc1ccc(CC(CN(CC(=O)O)CC(=O)O)N(CC(=O)O)CC(=O)O)cc1)C(N)=O (stereo not drawn) [BALTUBE] | 1.52 | 
6 | 2.5 | 3.3 | 11.5 | 6.9% of total injected dose | 50.8 | 20.0% of total injected dose | 11.8 | 0.97 | 6.9 | 1.5 | 2.0 | 12.1 | 21.1% of total injected dose | 68.3 | 30.4% of total injected dose | 7.9 | 1.53 | 21.1 |  | O=C(O)CCCNC(=S)Nc1ccc(CC(CN(CC(=O)O)CC(=O)O)N(CC(=O)O)CC(=O)O)cc1 (stereo not drawn) [BATUBE] | 1.24 | 
